Measured values as given in patent US11846638B2, “Methods for detecting Na/K-ATPase-mediated Src signaling for diagnosis and prognosis of cancer” (Marshall University Research Corporation, priority 2017, dated 2023).
Entries after “also recorded” stand apart in the source; their conditions may differ.

Assays:
AAC-19 and Y260A cells [1] = assay: Extracellular acidification rate (ECAR), Seahorse, in AAC-19 and Y260A cells; type: cell-based, porcine; conditions: for ECAR after oligomycin (maximal capacity of glycolysis): after addition of glucose
Protocol: Bioenergetics. Properties of cellular bioenergetics were characterized using Seahorse XFp Extracellular Flux Analyzer by measuring oxygen consumption rate (OCR) and extracellular acidification rate (ECAR) following the guidelines provided by the manufacturer. Prior to the start of Seahorse assay, optimal FCCP concentration for each cell line was determined by titration studies. Unless indicated otherwise, 10,000 cells per well were seeded with culture medium. Bicarbonate-free medium (Agilent Technologies) with different substrates (10 mM glucose, 2 mM glutamine and 1 mM pyruvate for Cell Mito Stress Test assays; 2 mM glutamine for Glycolysis Stress Test assays) was replaced one hour prior to the assay. Baseline OCR and ECAR rates were measured three times before various inhibitors, stimulants, substrates, or compounds were added through the drug delivery ports. In the PP2 study, cells were pretreated with 5 μM PP2 for 4 h and then analyzed.

[2] = system: α1 Na/K-ATPase Y260 phosphorylation; assay: Y260 phosphorylation of α1 Na/K-ATPase in LLC-PK1 cells (immunoblot); type: cell-based, porcine
Protocol: (§1) Cell culture and cell line generation. All cell lines were purchased from and maintained according to ATCC (Manassas, Va.). LLC-PK1 was serum starved before being used for signaling experiments. AAC-19, Y260A and DU145, A4-7 cell lines were cultured in the presence of 0.5% and 1% serum respectively for 24 hours before being used for the signaling experiments. LLC-PK1 cells were transfected (Lipofectamine 2000) with pEYFP-C1 vector containing α1 CD2, α2 CD2 or pEYFP-C1 empty vector. After verifying YFP expression visually, the cells were selected with 1 mg/ml G418 for one week. G418 resistant clones were selected and expanded. Cells were then cultured without G418 for at least three generations before being used for experiments. CD2N and CD2C cells were generated in similar manner. Y260A cells were generated by transfecting PY-17 cells with pRC/CMV-α1 AACm1 vector harboring mutation at Y260 and selected with ouabain (3 μM). Ouabain-resistant clones were isolated and expanded into stable cell lines. The cells were cultured for at least 3 generations without ouabain before being used for any experiment. DU-P1, A4-7 and A4-3 cell lines were generated by transfecting DU145 cells with a α1 Na/K-ATPase-specific siRNA containing vector and selecting with Puromycin as described above. All constructs were verified by DNA sequencing.
(§2) Immunoblot, Immunoprecipitation and Immunostaining Analysis. Immunoblot assays were performed as described previously. Intensity of bands were quantified with ImageJ software (NIH). Immunoprecipitation was performed by adding 5 μg of anti-Src (Millipore Cat #05-184) antibody to 500 μg of cell lysate (1 μg/μl concentration) or 8 μg of anti-α1 Na/K-ATPase antibody (Millipore Cat #06-520) to 800 μg of cell lysate ([…] concentration). Precipitated proteins were then analyzed as described previously. For immunostaining antibodies used—anti-α1 Na/K-ATPase antibody (Millipore Cat #05-369) and Alexa Fluor 488-conjugated anti-mouse secondary antibody.

[3] = system: α1 Na/K-ATPase Y10 phosphorylation; assay: Y10 phosphorylation of α1 Na/K-ATPase in LLC-PK1 cells (immunoblot); type: cell-based, porcine
Protocol: as §1, with “DU-P1, A4-7 and A4-3 cell lines were generated by transfecting DU145 cells with a α1 Na/K-ATPase-specific siRNA containing vector and selecting with Puromycin as described above. All constructs were verified by DNA sequencing.” left out
(§3) Immunoblot, Immunoprecipitation and Immunostaining Analysis. […] Intensity of bands were quantified with ImageJ software (NIH). […] Precipitated proteins were then analyzed as described previously. […]

Akt = Akt activation (pS473Akt/Akt) by Western blot in AAC-19 and Y260A cells; type: cell-based, porcine; conditions: different concentrations of ouabain for 10 minutes
Protocol: as §1, with “DU-P1, A4-7 and A4-3 cell lines were generated by transfecting DU145 cells with a α1 Na/K-ATPase-specific siRNA containing vector and selecting with Puromycin as described above. All constructs were verified by DNA sequencing.” left out
as §3

Src [4] = assay: Src activation (pY418Src/c-Src) by Western blot in LLC-PK1, AAC-19 and Y260A cells; type: cell-based, porcine; conditions: for Src phosphorylation (pY418Src/c-Src): different concentrations of ouabain for 10 minutes
Protocol: as §1, §2

ERK1/2 = assay: ERK activation (pERK1/2/ERK1/2) by Western blot in AAC-19 and Y260A cells; type: cell-based, porcine; conditions: for ERK phosphorylation (pERK1/2/ERK1/2): different concentrations of ouabain for 10 minutes
Protocol: as §1, §2

Src [5] = assay: Src activation (pY418 Src/c-Src) by Western blot in DU-P1 and A4-7 cells; type: cell-based, human; conditions: different concentrations of EGF for 5 minutes
Protocol: as §1, with “DU-P1, A4-7 and A4-3 cell lines were generated by transfecting DU145 cells with a α1 Na/K-ATPase-specific siRNA containing vector and selecting with Puromycin as described above. All constructs were verified by DNA sequencing.” left out
as §3

EGFR [6] = assay: EGFR phosphorylation at Y845 in AAC-19 and Y260A cells; type: cell-based, porcine; conditions: AAC-19 cells; different concentrations of EGF
Protocol: as §1, with “DU-P1, A4-7 and A4-3 cell lines were generated by transfecting DU145 cells with a α1 Na/K-ATPase-specific siRNA containing vector and selecting with Puromycin as described above. All constructs were verified by DNA sequencing.” left out
as §3

EGFR [7] = assay: EGFR activation (pY845 EGFR/EGFR) by Western blot in DU-P1 and A4-7 cells; type: cell-based, human; conditions: different concentrations of EGF for 5 minutes
Protocol: as §1, with “DU-P1, A4-7 and A4-3 cell lines were generated by transfecting DU145 cells with a α1 Na/K-ATPase-specific siRNA containing vector and selecting with Puromycin as described above. All constructs were verified by DNA sequencing.” left out
as §3

Y260A cells [8] = assay: Lactate production in culture medium of Y260A cells; type: cell-based, porcine; conditions: 5 μM PP2 for 4 h
Protocol: (§4) Biochemical measurement of ATP and lactate. ATP measurements were performed using CellTiter-Glo Luminescent Cell Viability Assay kit. 10,000 cells per well were cultured in 96-well culture plate. After treatment with 2-DG at indicated concentrations in serum-free DMEM for 45 minutes, assay reagents were reconstituted and added into culture plate. Luminescent counts of the reactants were determined from an opaque-walled 96-well plate with a microplate reader. Lactate measurement was done by colorimetric methods as described by previously. In PP2 study, culture medium containing serum and 5 μM PP2 was replaced in culture dish and collected after 4 hours for measurements.

A4-7 cells [9] = assay: Lactate production in medium of A4-7 cells; type: cell-based, human; conditions: 5 μM PP2 for 4 h
Protocol: as §4

A4-7 cells [10] = assay: Cell proliferation of A4-7 cells; type: cell-based, human; conditions: PP2, 48 hours
Protocol: Cell growth assay and MTT assay. Cell growth assay and MTT assay were performed as previously described.

Y260A cells [11] = assay: qPCR of upregulated metabolic genes in Y260A cells; type: cell-based, porcine; conditions: 5 μM PP2 overnight
Excerpt: RNA Extraction, cDNA Synthesis and Quantitative PCR. Total RNA was isolated with the QIAGEN RNeasy Mini Kit. The same amount of total RNA was used for synthesizing first-stand cDNA with the SuperScript III First-Stand Synthesis SuperMix for qRT-PCR (ThermoFisher). The cDNA from each sample was used as a template for the quantitative PCR (Syber green) with Roche LightCycler® 480 Real-Time PCR System. All primers were synthesized by Integrated DNA Technologies (IDT). β-actin was used as internal control.

AAC-19 and Y260A cells [12] = assay: Cellular ATP content (CellTiter-Glo) under glycolysis inhibition; type: cell-based, porcine; conditions: Y260A cells compared to AAC-19 cells; 2-DG 45 minutes in serum-free DMEM
Protocol: as §4

CC[C@H]1/C=C/C=C/C[C@@H](C)[C@H](O)[C@@](C)(O)C(=O)[C@@H](C)[C@H](O)[C@@H](C)C(=O)[C@@H](C)[C@H](O)[C@@H](C)/C=C/C(=O)O[C@@H]2[C@H](C)[C@H](CC1)O[C@]1(CC[C@H](C)[C@H](C[C@@H](C)O)O1)[C@H]2C [oligomycin]
ECAR after oligomycin (maximal capacity of glycolysis) (AAC-19 and Y260A cells [1]; AAC-19 cells): further increase | ECAR after oligomycin (maximal capacity of glycolysis) (AAC-19 and Y260A cells [1]; Y260A cells): not in Y260A cells

C[C@@H]1O[C@@H](O[C@H]2C[C@@H](O)[C@]3(CO)[C@H]4[C@H](O)C[C@]5(C)[C@@H](C6=CC(=O)OC6)CC[C@]5(O)[C@@H]4CC[C@]3(O)C2)[C@H](O)[C@H](O)[C@H]1O [ouabain]
Y260 phosphorylation ([2]; ouabain, function of time and concentration): increased | Y10 phosphorylation ([3]; ouabain): no effect | Akt phosphorylation (pS473Akt/Akt) (Akt; AAC-19 cells): stimulated | Akt phosphorylation (pS473Akt/Akt) (Akt; Y260A mutant cells): abolished | Src phosphorylation (pY418Src/c-Src) (Src [4]; AAC-19 cells): stimulated | Src phosphorylation (pY418Src/c-Src) (Src [4]; Y260A mutant cells): abolished | ERK phosphorylation (pERK1/2/ERK1/2) (ERK1/2; AAC-19 cells): stimulated | ERK phosphorylation (pERK1/2/ERK1/2) (ERK1/2; Y260A mutant cells): abolished | ouabain-induced ERK activation (pERK1/2/ERK 1/2) (ERK1/2; Y260A mutant clone 24 cells): failed to respond

EGF: recombinant EGF, stimulates EGFR/Src signaling
Y260 phosphorylation of Na/K-ATPase ([2]; recombinant EGF, time and dose): time- and dose-dependent stimulation | Src kinase activity (Src [4]; AAC-19 cells, different concentrations of EGF): stimulated | Src phosphorylation at Y418 (Src [4]; LLC-PK1 cells, recombinant EGF, time and dose): time- and dose-dependent stimulation | Src activation (pY418 Src/c-Src) (Src [5]; A4-7 cells): not in A4-7 cells | Src activation (pY418 Src/c-Src) (Src [5]; DU-P1 cells): able to stimulate | phosphorylation of EGFR at Y845 (EGFR [6]): stimulated | Y845 phosphorylation of EGFR (EGFR [7]; A4-7 cells): not in A4-7 cells | Y845 phosphorylation of EGFR (EGFR [7]; DU-P1 cells): able to stimulate

CC(C)(C)n1nc(-c2ccc(Cl)cc2)c2c(N)ncnc21 [PP2]
Y260 phosphorylation ([2]; PP2 5 μM, 30 minutes pretreatment): attenuated | lactate production (Y260A cells [8]): sufficient to reduce; also recorded: blocked the increase | Y10 phosphorylation ([3]; PP2 5 μM, 30 minutes): Neither inhibitor nor knockout of Src kinase affected | lactate production (increased in A4-7 cells) (A4-7 cells [9]): sensitive to Src inhibition | glycolysis rate (ECAR) (AAC-19 and Y260A cells [1]; Y260A cells, 5 μM PP2 for 4 h): sufficient to reduce | cell proliferation rate (A4-7 cells [10]): reversed; also recorded: inhibition | mRNA level of upregulated glycolytic/metabolic genes (Y260A cells [11]): restored the mRNA level of most of these upregulated genes; also recorded: reduced the expression | basal ERK activities (increased in Y260A cells) (ERK1/2; Y260A cells, PP2): sensitive to PP2; also recorded: sensitive to Src inhibitor

O=CC[C@@H](O)[C@H](O)[C@H](O)CO [2-DG, 2-deoxyglucose]
cellular ATP content in response to inhibition of glycolysis (AAC-19 and Y260A cells [12]): much more sensitive | ECAR after 2-DG (AAC-19 and Y260A cells [1]; AAC-19 and Y260A cells, after glucose and oligomycin): completely reversed the increase
